The record followed here is patent publication US12595239B2, “Substituted isoxazoline derivatives” (BASF SE, priority 2021, dated 2026).

The structures appear in SMILES notation. Bounds are passed on as bounds.

What all share (format): in vivo
In one assay the test system is Spodoptera eridania. The assay is described as follows: B.11 Southern Armyworm 2nd instar larvae, lima bean foliar spray test. Conditions: 96 h, 4 days after treatment, read-out: mortality in comparison with untreated controls. As for the experimental part: The active compounds were formulated by a Tecan liquid handler in 100% cyclohexanone as a 10′000 ppm solution supplied in tubes. The 10′000 ppm solution was serially diluted in 100% cyclohexanone to make interim solutions. These served as stock solutions for which final dilutions were made by the Tecan in 50% acetone:50% water (v/v) into 10 or 20 ml glass vials. A nonionic surfactant (Kinetic®) was included in the solution at a volume of 0.01% (v/v). The vials were then inserted into an automated electrostatic sprayer equipped with an atomizing nozzle for application to plants/insects. Lima bean plants (variety Sieva) were grown 2 plants to a pot and selected for treatment at the 1st true leaf stage. Test solutions were sprayed onto the foliage by an automated electrostatic plant sprayer equipped with an atomizing spray nozzle. The plants were dried in the sprayer fume hood and then removed from the sprayer. Each pot was placed into perforated plastic bags with a zip closure. Ten to 11 armyworm larvae were placed into the bag and the bags zipped closed. Test plants were maintained in a growth room at about 25° C. and about 20-40% relative humidity for 4 days, avoiding direct exposure to fluorescent light (14:10 light:dark photo-period) to prevent trapping of heat inside the bags. Mortality and reduced feeding were assessed 4 days after treatment, compared to untreated control plants.

For the next assay, the system named is Plutella xylostella. As to the kind of experiment: B.6 Diamond Back Moth, cabbage leaf disc dip test. The settings on record: foliar, 3rd instar larvae, 72 hours after treatment, read-out: mortality in comparison with untreated controls. As for the experimental part: The active compound was dissolved at the desired concentration in a mixture of 1:1 (vol:vol) distilled water:acetone. Surfactant (Kinetic) was added at a rate of 0.01% (vol/vol). The test solution was prepared at the day of use. Cabbage leaf discs (60 mm in diameter) were dipped in test solution and air-dried. Treated leaves were placed in petri dishes lined with moistened filter paper and inoculated with ten 3rd instar larvae. Mortality was recorded 72 hours after treatment. Feeding damages were also recorded using a scale of 0-100%.

The next assay concerns Dichromothrips corbetti. The assay is described as follows: B.7 Orchid Thrips, floral-immersion test. Conditions: adult thrips, 72 hours after treatment, read-out: mortality in comparison with untreated controls. On the procedure: Dichromothrips corbetti adults used for bioassay were obtained from a colony maintained continuously under laboratory conditions. For testing purposes, the test compound was diluted in a 1:1 mixture of acetone:water (vol:vol), plus Kinetic at a rate of 0.01% v/v.
Thrips potency of each compound was evaluated by using a floral-immersion technique. Each orchid petal was dipped into treatment solution and allowed to dry in Petri dishes. Treated petals were placed into individual re-sealable plastic along with about 20 adult thrips. All test arenas were held under dark condition and a temperature of about 28° C. for duration of the assay. The percent mortality was recorded 72 hours after treatment.

The subject of another assay is Anthonomus grandis. As to the kind of experiment: B.1 Boll weevil (Anthonomus grandis), 96-well microtiter plate diet test. Conditions: 120 h, egg and larval mortality, 5 days, read-out: mortality in comparison with untreated controls. On the procedure: For evaluating control of boll weevil, the test unit consisted of 96-well-microtiter plates containing an insect diet and 5-10 A. grandis eggs.
The compounds were formulated using a solution containing 75% v/v water and 25% v/v DMSO. Different concentrations of formulated compounds were sprayed onto the insect diet at 5 μl, using a custom-built micro atomizer, at two replications.
After application, microtiter plates were incubated at about 25±1° C. and about 75±5% relative humidity for 5 days. Egg and larval mortality were then visually assessed.

Usually mortality stands for the share of the test organisms that died. As to `O=C(Nc1ccc(F)cc1F)c1cccc(NC2=NOC(c3cc(Cl)cc(Cl)c3)(C(F)(F)F)C2)c1F` (stereo not drawn) [I-48, 3-[[5-(3,5-dichlorophenyl)-5-(trifluoromethyl)-4H-isoxazol-3-yl]amino]-N-(2,4-difluoro-phenyl)-2-fluoro-benzamide], the mortality at 300 ppm in the assay on Spodoptera eridania, in the assay on Plutella xylostella and in the assay on Dichromothrips corbetti was ≥ 75% each time.
Turning to `O=C(Nc1ccc(F)c(NC(=O)C(F)F)c1F)c1cc(NC2=NOC(c3cc(Cl)cc(Cl)c3)(C(F)(F)F)C2)ccc1Cl` (stereo not drawn) [I-6, 2-chloro-5-[[5-(3,5-dichlorophenyl)-5-(trifluoromethyl)-4H-isoxazol-3-yl]amino]-N-[3-[(2,2-difluoroacetyl)amino]-2,4-difluoro-phenyl]benzamide], the mortality at 300 ppm with Plutella xylostella and in the assay on Dichromothrips corbetti was ≥ 75% in each case.
Regarding `O=C(NC1CN(S(=O)(=O)C(F)F)C1)c1cc(NC2=NOC(c3cc(Cl)c(F)c(Cl)c3)(C(F)(F)F)C2)ccc1Cl` (stereo not drawn) [I-41, 2-chloro-5-[[5-(3,5-dichloro-4-fluoro-phenyl)-5-(trifluoromethyl)-4H-isoxazol-3-yl]amino]-N-[1-(difluoromethylsulfonyl)azetidin-3-yl]benzamide], the mortality at 300 ppm in the assay with Spodoptera eridania, in the assay with Plutella xylostella and in the assay with Dichromothrips corbetti was ≥ 75% in each case.
Consider `N#CC1(NC(=O)c2c(F)ccc(NC3=NOC(c4cc(Cl)cc(Cl)c4)(C(F)(F)F)C3)c2F)CC1` (stereo not drawn) [I-30, N-(1-cyanocyclopropyl)-3-[[5-(3,5-dichlorophenyl)-5-(trifluoromethyl)-4H-isoxazol-3-yl]amino]-2,6-difluoro-benzamide], for which the mortality at 2500 ppm in the assay on Anthonomus grandis was ≥ 75%. Also, the mortality at 300 ppm with Spodoptera eridania, in the assay on Plutella xylostella and in the assay with Dichromothrips corbetti was ≥ 75% in each case.
Turning to `O=C(Nc1cnccc1F)c1cc(NC2=NOC(c3cc(Cl)c(F)c(Cl)c3)(C(F)(F)F)C2)ccc1Cl` (stereo not drawn) [I-62, 2-chloro-5-[[5-(3,5-dichloro-4-fluoro-phenyl)-5-(trifluoromethyl)-4H-isoxazol-3-yl]amino]-N-(4-fluoro-3-pyridyl)benzamide], the mortality at 300 ppm in the assay with Plutella xylostella and in the assay with Dichromothrips corbetti was ≥ 75% in each case.
Turning to `CC(C)(C#N)NC(=O)c1cc(NC2=NOC(c3cc(Cl)c(F)c(Cl)c3)(C(F)(F)F)C2)ccc1Cl` (stereo not drawn) [I-58, 2-chloro-N-(1-cyano-1-methyl-ethyl)-5-[[5-(3,5-dichloro-4-fluoro-phenyl)-5-(trifluoromethyl)-4H-isoxazol-3-yl]amino]benzamide], the mortality at 300 ppm in the assay on Spodoptera eridania, with Plutella xylostella and with Dichromothrips corbetti was ≥ 75% each time.
For `N#CC1(NC(=O)c2cc(S(=O)(=O)C3=NOC(c4cc(Cl)cc(Cl)c4)(C(F)(F)F)C3)ccc2Cl)CC1` (stereo not drawn) [II-3, 2-chloro-N-(1-cyanocyclopropyl)-5-[[5-(3,5-dichlorophenyl)-5-(trifluoromethyl)-4H-isoxazol-3-yl]sulfonyl]benzamide], in the assay with Plutella xylostella, the mortality at 300 ppm was ≥ 75%.
